{"source": "patent US6686388B2", "about": "“Regulators of the hedgehog pathway, compositions and uses related thereto” (priority 1999, dated 2004)", "key": {"[1]": {"system": "medulloblastoma cells from ptc-1 knockout mice", "test": "growth of subcutaneous-transplanted medulloblastoma tumors in nude mice", "type": "in vivo, mouse", "excerpt": "(§1) To determine whether Hh signaling inhibitors can inhibit tumor growth in vivo, medulloblastoma cells from ptc-1 knockout mice were transplanted subcutaneously into athymic (“nude”) mice. After allowing time for the tumor cells to grow at the injection site, the transplanted mice were divided into groups, and treated with either control vehicle, or cAMP agonist drugs. In one set of experiments, tumors were infused with either H-forskolin, or water as a control. After several days of drug infusion, the mice were sacrificed, and the tumors were sectioned for histology. The transplanted medulloblastoma cells from the ptc knockout mice contain a lacZ transgene (encoding β-galactosidase), the expression of which is induced by Hh signaling. Therefore, the level of β-galactosidase in these cells indicates their level of […] signaling. Thus, in order to determine how effectively the infused drug inhibited Hh signaling in the tumor, the tumor sections were stained for β-galactosidase activity using the substrate Xgal, which stains expressing cells blue.\nIn order to determine whether Hh pathway inhibitors can inhibit tumor growth in vivo, cAMP agonists were administered to mice that, as above, had subcutaneous medulloblastoma tumors. In one experiment, one group of mice received daily intraperitoneal injections of forskolin, while control mice received equivalent injections of vehicle (DMSO). The volumes of the tumors were regularly determined by measuring tumor dimensions with a caliper. In the mice treated with DMSO control, the tumors grew much more rapidly than in the mice treated with forskolin. […] In a similar experiment, H-forskolin or control vehicle was administered systemically to mice continuously, via an osmotic minipump that was implanted subcutaneously (and replaced regularly). Again in this experiment (FIG. 13), tumor size was smaller in the H-forskolin-treated mice than in the control mice."}, "medulloblastoma cells": {"system": "medulloblastoma cells", "test": "tritiated thymidine incorporation assay in medulloblastoma cells", "type": "cell-based, mouse", "conditions": "typical assay", "experimental": "In order to test the effects of cAMP agonists on the proliferation of Hh-pathway tumor cells, primary medulloblastoma cell cultures were similarly treated with forskolin or control vehicle. From 2-3 DIV, bromodeoxyuridine (BrdU) was then added to the cultures, to label proliferating cells. On 3 DIV, cells were fixed with paraformaldehyde. Cells were then immunostained with an antibody to BrdU to identify cells that had been proliferating, and counterstained with bisbenzimide to determine total cell number. The number of total and BrdU(+) cells were then scored in multiple fields in wells of each condition, to determine the percent proliferating cells under different treatments. The scorer was blinded as to the treatments of the cells. […] Similar results were obtained when proliferation was measured using a tritiated thymidine incorporation assay, and other cAMP agents were also found to be effective."}, "Hh signaling": {"system": "Hh signaling", "test": "Xgal staining of subcutaneous medulloblastoma tumors after drug infusion", "type": "in vivo, mouse", "conditions": "tumor infusion for several days, compared to control (water)", "excerpt": "as §1"}, "[2]": {"system": "medulloblastoma tumor cells", "type": "cell-based, mouse", "experimental": "These medulloblastoma cells were derived from tumors that arose in the brains of mice heterozygous for an inactivating mutation in the ptc gene (“heterozygous ptc knockout mice”). Mutation of ptc leads to inappropriate activation of the Hh signaling pathway, and in these ptc knockout mice, the ptc mutation results in the occurrence of medulloblastomas. The medulloblastoma tumor cells were placed into primary culture in neuronal culture medium (Basal Medium of Eagle, with 10% calf serum, 25 mM KCl, and 2 mM glutamine). Cells were typically seeded at 0.5 or 1.0×10^6 cells/well of a 24 well plate, in 0.5 ml of medium per well. […] From 2-3 DIV, bromodeoxyuridine (BrdU) was added to the cultures, to label proliferating cells. On 3 DIV, cells were fixed with paraformaldehyde. […] The numbers of total and BrdU(+) cells were then scored in multiple fields in wells of each condition, to determine the percent proliferating cells under different treatments. The scorer was blinded as to the treatments of the cells.\n(§2) To determine the effects of cAMP agonist drugs on the Hedgehog (Hh) signaling pathway in tumor cells, medulloblastoma cells were grown in primary culture. These medulloblastoma brain tumors arose in mice heterozygous for an inactivating mutation in the ptc-1 gene (“heterozygous ptc knockout mice”). Mutation of ptc-1 leads to inappropriate activation of the Hh signaling pathway, and in these ptc-1 knockout mice, the ptc-1 mutation results in the occurrence of medulloblastoma. The medulloblastoma tumor cells were placed into primary culture in neuronal culture medium (Basal Medium of Eagle, with 10% serum, 25 mM KCl, and 2 mM glutamine). Cells were typically seeded at 0.5 or […] cells/well of a 24 well plate, in 0.5 ml of medium. One day after seeding (i.e., on 1 day in vitro, or DIV), cells were treated with forskolin (50 μM final), or an equal amount of vehicle (0.1% DMSO). On 3 DIV, RNA was isolated from the cells, and the expression of the Hh-response gene gli-1 was determined by RT-PCR analysis.\nIn order to test the effects of cAMP agonists on the proliferation of Hh-pathway tumor cells, primary medulloblastoma cell cultures were similarly treated with forskolin or control vehicle. From 2-3 DIV, bromodeoxyuridine (BrdU) was then added to the cultures, to label proliferating cells. On 3 DIV, cells were fixed with paraformaldehyde. […] The number of total and BrdU(+) cells were then scored in multiple fields in wells of each condition, to determine the percent proliferating cells under different treatments. The scorer was blinded as to the treatments of the cells."}, "[3]": {"system": "hair follicle development", "test": "topical application on newborn Ptc-lacZ mice, skin histology", "type": "in vivo, mouse", "conditions": "5 mM in DMSO topical, twice a day, 7 days", "experimental": "This effect may be due to the inhibition of the Hh pathway by forskolin, as the Hh pathway plays a critical role in hair follicle development (FIG. 14). Postnatal day 2 mouse pups were used for this experiment. For each pup, 5 μl of DMSO or forskolin in DMSO (5 mM) was applied on the center of the back using a micro-pipette tip. The same procedure is repeated twice, with a total of […] compound applied each time. The procedure was performed on the same animal twice a day for a period of 7 days. The pups were then sacrificed and the skin was taken from the applied area for histology analysis. H&E staining was performed on the paraffin embedded sections."}, "[4]": {"system": "basal cell carcinoma tissue", "test": "subcutaneous injection near basal cell carcinoma, histology", "type": "in vivo, mouse", "conditions": "subcutaneous near the tumor, once a day, 21 days", "experimental": "Experiments were conducted to determine the effect of cAMP elevating agents on basal cell carcinoma tissue. A solution of forskolin (50 mM) in ethanol was diluted 1:2 with cremophor (resulting in 50% ethanol/50% cremophor), then diluted 1:5 with PBS or normal saline (resulting in final 10% ethanol/10% cremophor/80% PBS or saline. The solution was administered by subcutaneous injection at different sites near the tumor (e.g., within a few millimeters of the margin), but not into the tumor itself. Treatment continued once a day every 24 hours for 21 days, 1 μl compound/g weight. After treatment, tumor size was measured, and the tumor was removed and analyzed by histology to determine morphological changes. Untreated BCC tissue is depicted in FIG. 16, and forskolin-treated tissue is depicted in FIGS. 17-18."}, "hair follicles": {"system": "hair follicles", "test": "hydron pellet implantation into ptc-1 lacZ skin punches, 8 days of culture", "type": "cell-based, mouse", "conditions": "implanted pellets, Shh supplied with the culture medium", "experimental": "FIG. 19 depicts hydron pellet implantation into 3-day mouse ptc-1 lacZ skin punches after 8 days of culture. Ethanol, hydron polymer, and Shh or forskolin in PBS, respectively, were mixed according to the manufacturer's instructions, poured in 2 mm pellet casts and dried/UV-irradiated over night. Alternatively, 3 mg/ml of octylated Shh protein was added to the culture medium (on day 1, 3 and 5) for the medium control as well as the forskolin-pellet implant. 3-day-old skin was harvested from the backs of mouse pups transgenic for ptc-1 lacZ, as identified by lacZ reporter detection using tails, by standard procedures. 6 mm skin punches were taken using Miltex skin punches and incubated for 60 min. Pellets were inserted by carefully separating the dermal from the epidermal layer using forceps. Cultures were grown for 8 days, fixed in lacZ fixative according to standard protocols, rinsed and stained for lacZ over night at 37° C.\nResults: (A) Untreated control, showing a small number of short hairs. […] Hair length and thickness of the dermis thickness are increased as well. Ptc-lacZ, a reporter gene indicative of Shh signaling is induced in follicular as well as basal cells (blue stain), although partially obscured by melanin. […] Note the highly localized area of follicle induction, corresponding to the area adjacent to bead insertion. […]"}, "gli-1": {"system": "gli-1", "test": "gli-1 expression by RT-PCR in primary medulloblastoma cells", "type": "cell-based, mouse", "conditions": "50 μM, RNA on 3 DIV", "experimental": "as §2"}, "hair development": {"system": "hair development", "test": "injection of pregnant female mouse, hair development in the fetus", "type": "in vivo", "experimental": "For these experiments, 20 μl of forskolin in DMSO (50 mM) was injected into a pregnant female mouse daily for E14.5 to E17.5 intraperitoneally. The mouse was sacrificed at E17.5 and the fetuses were removed for gross inspection. The skin from each fetus was processed for H&E staining."}, "[5]": {"conditions": "10 μM, BrdU 2-3 DIV, fixed 3 DIV, typical experiment"}}, "note": "Like-named read-outs stand apart in the source and are kept apart here."}
{"molecule": "C=CC1(C)CC(=O)C2(O)C(C)(O1)C(OC(=O)CCCN1CCN(C)CC1)C(O)C1C(C)(C)CCC(O)C12C", "note": "(centres unmarked) [H-forskolin, 7-deacetyl-7-[O-(N-methylpiperazino)-gamma-butyryl]-forskolin]", "values": [{"measurement": "tumor size", "setting": "[1]; systemic, continuous via subcutaneous osmotic minipump, versus control mice", "value": "smaller"}, {"measurement": "inhibition of tritiated thymidine incorporation", "setting": "medulloblastoma cells", "value": 91, "unit": "%"}, {"measurement": "Xgal staining of tumors", "setting": "Hh signaling", "value": "reduced Xgal staining"}]}
{"molecule": "CC1=C2C[C@H]3[C@@H](CC=C4C[C@@H](O)CC[C@@]43C)[C@@H]2CC[C@]12O[C@@H]1C[C@H](C)CN[C@H]1[C@H]2C", "note": "[cyclopamine]", "values": [{"measurement": "inhibition of proliferation of the medulloblastoma cells", "setting": "[2]; 10 μM", "value": "strongly inhibit proliferation"}]}
{"molecule": "CC1=C2C(=O)[C@H]3[C@@H](CC=C4C[C@@H](O)CC[C@@]43C)[C@@H]2CC[C@]12O[C@@H]1C[C@H](C)CN[C@H]1[C@H]2C", "note": "[jervine]", "values": [{"measurement": "inhibition of proliferation of the medulloblastoma cells", "setting": "[2]; 10 μM", "value": "strongly inhibit proliferation"}, {"measurement": "percent proliferation (BrdU(+) cells)", "setting": "[2]; [5]", "value": 0.2, "unit": "%"}]}
{"molecule": "C[C@H]1CC[C@]2(NC1)O[C@H]1C[C@H]3[C@@H]4CC[C@H]5C[C@@H](O)CC[C@]5(C)[C@H]4CC[C@]3(C)[C@H]1[C@@H]2C", "note": "[tomatidine]", "values": [{"measurement": "percent proliferation (BrdU(+) cells)", "setting": "[2]; [5]", "value": 5.9, "unit": "%"}]}
{"molecule": "forskolin", "values": [{"measurement": "tumor regression in one treated mouse", "setting": "[1]; daily intraperitoneal injections", "value": "regressed, disappeared, and has not reappeared in over 60 days"}, {"measurement": "tumor growth", "setting": "[1]; daily intraperitoneal injections, versus DMSO", "value": "did not grow excessively large"}, {"measurement": "inhibition of tritiated thymidine incorporation", "setting": "medulloblastoma cells", "value": 93, "unit": "%"}, {"measurement": "hair density and hair follicle structure", "setting": "[3]", "value": "decrease of hair density and abnormalities of hair follicle structure"}, {"measurement": "inhibition of proliferation of the medulloblastoma cells", "setting": "[2]; forskolin 50 μM", "value": "strongly inhibit proliferation"}, {"measurement": "inhibition of proliferation", "setting": "[2]; forskolin 50 μM versus DMSO control", "value": 95, "unit": "%"}, {"measurement": "percent proliferation (BrdU(+) cells)", "setting": "[2]; forskolin 50 μM, typical experiment (FIG. 5)", "value": 0.4, "unit": "%"}, {"measurement": "BCC tissue histology", "setting": "[4]", "value": "tumor shrinkage and/or cell death"}, {"measurement": "hair follicles, hair length, pigmentation and dermis thickness", "setting": "hair follicles", "value": "reduction of hair follicles, hair length, pigmentation and dermis thickness to levels comparable to the control"}, {"measurement": "gli-1 expression", "setting": "gli-1", "value": "strongly inhibit gli-1 expression"}, {"measurement": "hair development in the fetus", "setting": "hair development; 20 μl of 50 mM in DMSO intraperitoneally daily E14.5 to E17.5", "value": "severe disruption of hair development"}, {"measurement": "number of hair follicles in fetal skin", "setting": "hair development; 20 μl of 50 mM in DMSO intraperitoneally daily E14.5 to E17.5, some fetuses", "value": "great reduction of the number of hair follicles"}, {"measurement": "Xgal staining of tumors", "setting": "Hh signaling", "value": "lower Xgal staining"}]}
